Test [1] concerns the target T1, YlNag5 (NAGA kinase) (Yarrowia lipolytica, UniProt Q6C584, F320S).
T1 construct: gene YALI0_E20207g
Put plainly: residual NAGA assay after incubation with extract. The test is classed as biochemical.

Test [2] deals with T2, YlNag5 (NAGA kinase) (Yarrowia lipolytica, UniProt Q6C584, D214V).
T2 construct: gene YALI0_E20207g
Put plainly: residual NAGA assay after incubation with extract. The format is biochemical.

Consider one molecule from article PMC8658026, “The N-Acetylglucosamine Kinase from Yarrowia lipolytica Is a Moonlighting Protein” (International Journal of Molecular Sciences, 2021).

T1 sequence (Q6C584 entry or part of it F320S): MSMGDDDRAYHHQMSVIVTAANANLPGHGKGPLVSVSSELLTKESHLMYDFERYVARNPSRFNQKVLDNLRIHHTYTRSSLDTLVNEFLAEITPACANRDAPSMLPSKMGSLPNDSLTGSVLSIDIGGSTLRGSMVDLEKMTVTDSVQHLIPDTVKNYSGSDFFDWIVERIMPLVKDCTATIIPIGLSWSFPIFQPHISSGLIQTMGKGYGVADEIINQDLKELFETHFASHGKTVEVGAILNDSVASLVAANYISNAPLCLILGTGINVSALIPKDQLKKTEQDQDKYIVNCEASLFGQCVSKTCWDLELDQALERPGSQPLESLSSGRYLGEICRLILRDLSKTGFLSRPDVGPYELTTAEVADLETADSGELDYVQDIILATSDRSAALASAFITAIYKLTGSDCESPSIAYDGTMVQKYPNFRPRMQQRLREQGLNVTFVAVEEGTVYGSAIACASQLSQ
T2 sequence (Q6C584 entry or part of it D214V): as the sequence (Q6C584 entry or part of it F320S) above, with D214V, S320F counted along it

Turning to `CC(=O)N[C@H]1C(O)O[C@H](CO)[C@@H](O)[C@@H]1O` (some centres unmarked) [NAGA], the “residual NAGA assay after incubation with extract” value in test [1] and in test [2] was “strains expressing the F320S or D214V variants of YlNag5 exhibited low or moderate kinase activity” throughout.
